Laboratory results taken from ChEMBL document CHEMBL4613239, “α-Glucosidase and Protein Tyrosine Phosphatase 1B Inhibitors from Malbranchea circinata” (J Nat Prod, 2020).
The source made the active and inactive calls. No cut-off for these calls is given here.

Legend:
[1] = Inhibition of Saccharomyces cerevisiae alpha-glucosidase using pNPG as substrate preincubated for 10 mins followed by substrate addition after 20 mins
[2] = Inhibition of rat intestinal rat alpha-glucosidase
Mus musculus = test: Induction of hypo glycemic activity in ICR mouse assessed as reduction in postprandial glucose level at 10 mg/kg, po pretreated for 30 mins followed by sucrose treatment and measured after 30 to 120 mins; format: functional, organism-based
[3] = target: T1, Tyrosine-protein phosphatase non-receptor type 1 (Homo sapiens, UniProt P18031); test: (§1) Inhibition of human PTP1B expressed in Escherichia coli BL21 (DE3) cells using PNPP as substate preincubated for 5 mins followed by substrate additon and measured after 15 mins
T1 sequence (P18031 whole entry): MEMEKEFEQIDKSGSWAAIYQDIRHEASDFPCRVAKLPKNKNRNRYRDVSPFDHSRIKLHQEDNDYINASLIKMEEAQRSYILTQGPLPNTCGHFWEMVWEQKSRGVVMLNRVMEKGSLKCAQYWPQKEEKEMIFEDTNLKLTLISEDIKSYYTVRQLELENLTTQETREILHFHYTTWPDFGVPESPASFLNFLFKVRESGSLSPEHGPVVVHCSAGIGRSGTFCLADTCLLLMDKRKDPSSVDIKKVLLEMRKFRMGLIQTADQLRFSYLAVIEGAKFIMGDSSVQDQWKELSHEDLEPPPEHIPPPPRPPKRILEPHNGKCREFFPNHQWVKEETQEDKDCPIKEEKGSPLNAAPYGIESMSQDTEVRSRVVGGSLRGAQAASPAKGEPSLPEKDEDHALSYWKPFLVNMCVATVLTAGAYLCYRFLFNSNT

[4] = target: T2, Tyrosine-protein phosphatase non-receptor type 1 (Homo sapiens) (UniProt P18031); test: as §1
T2 sequence (whole entry): T1 sequence (P18031 whole entry)

IC50 [1] [µM] | IC50 [2] [µM] | IC50 [3] [µM] | inhibition [4] | Compound | Activity (Mus musculus)
586 | 151 |  |  | C[C@H]1O[C@H](O[C@H]2[C@H](O)[C@@H](O)[C@@H](O[C@H]3[C@H](O)[C@@H](O)C(O)O[C@@H]3CO)O[C@@H]2CO)[C@H](O)[C@@H](O)[C@@H]1N[C@H]1C=C(CO)[C@@H](O)[C@H](O)[C@H]1O (stereo partly specified) [ACARBOSE] | Active
 |  |  | Active | CC(=O)O[C@H]1[C@@H](O)[C@@H](Oc2cccc3c2C(=O)c2c(O)cc(C)cc2C3=O)O[C@@H]1CO | 
 |  |  | Active | CC(=O)O[C@H]1[C@@H](Oc2cc(O)c3c(c2)C(=O)c2cc(C)cc(O)c2C3=O)O[C@H](CO)[C@H]1OC(C)=O | 
261 |  |  | Active | Cc1cc(O)c2c(c1)C(=O)c1cc(O[C@H]3O[C@H](CO)[C@@H](O)[C@H]3O)cc(O)c1C2=O | 

More lines, now with the values behind:

Compound | IC50 [1] [µM] | IC50 [2] [µM] | IC50 [3] [µM] | inhibition [4] | Activity (Mus musculus)
COC1CCC(=O)c2c(O)c(-c3cc(O)c4c(c3O)C(=O)CCC4OC)cc(O)c21 (stereo unspecified) |  |  | 10.9 |  | 
O=C1Nc2ccccc2-c2nc3ccccc3c(=O)n2-c2ccccc21 | 144 |  |  | Active | 
CC(C)=CCc1ccc(O)c2c(=O)c3c(O)cc(C)c(O)c3oc12 |  |  | 13.9 |  | 
CC1(C)c2[nH]c3cc(Cl)c(Cl)cc3c2C[C@@]23CN4CCC[C@]4(C[C@@H]12)C(=O)N3 | 71.3 | 459 | 14.5 |  | Active
O=C1Nc2ccccc2-c2nc3ccccc3c(=O)n2-c2c(O)cccc21 | 117 |  |  | Active | 
CC(=O)OC[C@H]1O[C@H](Oc2cc(O)c3c(c2)C(=O)c2cc(C)cc(O)c2C3=O)[C@H](OC(C)=O)[C@@H]1OC(C)=O |  |  |  | Active | 
C=CC(C)(C)[C@@]12C[C@@H]3C(=O)N4[C@H](C[C@@]5(C(C)(C)C=C)c6ccccc6N[C@@H]45)C(=O)N3[C@@H]1Nc1ccccc12 | 57.4 | 743 | 15.3 |  | 
